In this assay the target is Tyrosine-protein kinase SYK (Homo sapiens, UniProt P43405). The assay is described as follows: In Vitro Evaluation of Inhibitory Activity Against Syk Protein Kinase. How it is done:
Test Procedure and Method:(a) Compound dilution and microplate injection1) Compound powder was weighed and dissolved in a specific amount of DMSO at an initial concentration of 10 mM.2) The compound was diluted to have a concentration of 0.74 mM, POD18 was used for microplate injection by 135 nL per well, an initial concentration of the compound was 10 μM, and 11 concentrations and 3-fold descending serial dilution were carried out.(b) Reaction stage of enzyme and substrate1) Preparation of test buffer dilution: 5×HTRF buffer in the kit was diluted to 1×HTRF buffer, and a specified amount of DTT and MgCl2 solution were added for later use.2) A Syk enzyme reaction solution was prepared with 1×HTRF buffer, so that a final reaction concentration of Syk kinase was 0.0156 ng/μL.3) A TK-Substrate-biotin/ATP mixture was prepared, so that a final substrate concentration was controlled to be 0.2 μM. An ATP concentration was controlled to be 2 μM.4) A mutidorp injector was used to add the sample, 5 μL of Syk enzyme solution and TK-Substrate-biotin/ATP mixture were added to each well, and incubated at 23° C. for 1 hour.

The text below walks through data of BindingDB's records for patent US20240132503 (Ocumension Therapeutics (Suzhou) Co., 2024).

For the compound `c1cc(N2CCOCC2)ccc1NC1=Nc2ccc(-c3cn[nH]c3)cc2N2CCN=C12` [US20240132503, Compound Crystal form A Compound Formula 1], 25 nM corresponded to half-maximal inhibition (IC50).
